{"source": "paper PMC9029893", "about": "(International Journal of Molecular Sciences, 2022)", "key": {"AoSMC cells": {"tested_on": "AoSMC cells", "assay": "WST-1 cell viability assay, AoSMC", "settings": "Homo sapiens, 24 h, read-out: Viability-IC50, AoSMC cells", "method": "(§1) HUVEC and AoSMC viability were tested using the WST-1 cell viability assay (Takara Bio Europe, Saint-Germain-en-Laye, France). […] Briefly, HUVEC and AoSMC were seeded at densities of 7500 and 5000 cells per well on 96-well plates. The cells were cultivated for up to 24 h to achieve 70% confluency, and subsequently treated with tested compounds diluted in medium (1 + 9; v = 100 μL) or pure medium (control). The plates were incubated at 37 °C (5% CO2) for the next 24 h. Then, the cells were rinsed with 100 μL culture medium, and WST-1 reagent diluted in medium (100 μL) was added; the plates were then incubated again (37 °C, 5% CO2) for another 90 min. The absorbance was measured at 450 nm (iMARK, Bio-Rad, Hercules, CA, USA). The experiments were performed in multiplicate (n = 8) and the results were presented as mean ± SD. The cell viability was expressed as a percentage of the control samples, which constituted 100% viability. […] The variability coefficient of the method was estimated (CV(HUVEC) = 8.94%, n = 8; CV(AoSMC) = 5.84%, n = 10)."}, "antithrombin III (AT)": {"target": "antithrombin III (AT) (Homo sapiens, UniProt P01008)", "sequence (P01008 33-464)": "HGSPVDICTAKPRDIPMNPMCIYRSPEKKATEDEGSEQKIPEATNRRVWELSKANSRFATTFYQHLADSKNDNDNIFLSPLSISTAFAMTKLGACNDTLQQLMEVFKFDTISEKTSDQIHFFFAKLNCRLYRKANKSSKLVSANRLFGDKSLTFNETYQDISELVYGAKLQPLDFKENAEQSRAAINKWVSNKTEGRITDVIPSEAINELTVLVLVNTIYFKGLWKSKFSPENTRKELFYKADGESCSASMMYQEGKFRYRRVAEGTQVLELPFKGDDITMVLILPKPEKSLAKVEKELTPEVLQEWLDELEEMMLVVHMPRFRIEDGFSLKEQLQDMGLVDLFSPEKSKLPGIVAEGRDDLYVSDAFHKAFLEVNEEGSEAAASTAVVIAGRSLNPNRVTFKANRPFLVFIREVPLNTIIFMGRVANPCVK", "assay": "Activity of antithrombin III (AT)", "type": "biochemical", "experimental": "The activity of AT in human plasma was estimated spectrophotometrically using a diagnostic laboratory method. […] In the control samples, 10 μL of distilled water and methanol (1:1) was used. The reaction was initiated by the addition of a chromogenic substrate dissolved in water for injection; as a result, p-nitroaniline was released proportionally to the level of AT. The evaluation of AT level was performed on the basis of a calibration curve performed on calibrator diluted in the range 1:30–1:120 (λ = 405 nm) by the coagulometer program (CoagChrom-3003 Bio Ksel, Grudziadz, Poland). The coefficient of variability for the method (CV) was 2.69%, and the reference range was 80%–130%."}, "[1]": {"assay": "WST-1 cell viability assay, HUVEC", "settings": "human, HUVEC cells", "method": "as §1"}, "HUVEC cells [2]": {"tested_on": "HUVEC cells", "assay": "Glucose utilization assay (2-NBDG uptake)", "type": "cell-based, human", "settings": "24 h, then insulin and 2-NBDG", "experimental": "HUVEC were seeded at a density of 20,000 cells per well in 48-well plates, and were cultured in standard conditions for 24 h (medium EGM-2; volume 0.2 mL). Following this, compounds 1–8 were added at concentrations of 0.1 and 0.3 mM, and the HUVECs were incubated for another 24 h. Cells treated with ᴅ-glucose (final concentration in a sample 0.1 mM) were used as positive controls. On the following day, the cells were rinsed with PBS (Biomed Lublin, Lublin, Poland) and cultured for two hours in glucose-free DMEM medium supplemented with 1% BSA (bovine serum albumin, Sigma, St. Louis, MO, USA). Then, the cells were co-treated with insulin (final concentration 0.0001 mM) for 30 min. Afterwards, the medium was discarded and the cells were treated with 2-NBDG (final concentration 0.05 mM) for 30 min, followed by removal of the solutions of each well. The cells were washed twice with 100 µL PBS, and lysed using 1% Triton X-100 solution in PBS. The fluorescence was recorded using a microplate reader (Biotek, Instruments, Winooski, VT, USA) at 480/530 nm.\nThe concentration of intracellular 2-NBDG was calculated using a calibration curve obtained using 2-NBDG at concentrations ranging from 0.0001 to 0.025 mM in lysis buffer. The results are presented as mean ± SD, n = 4–6. The coefficient of variation for the assay was calculated (CV = 2.2%, n = 8)."}, "[3]": {"assay": "WST-1 cell viability assay, AoSMC", "settings": "human, AoSMC cells", "method": "as §1"}, "HUVEC cells [4]": {"tested_on": "HUVEC cells", "assay": "WST-1 cell viability assay, HUVEC", "settings": "for Decrease of HUVECs viability (growth inhibition): 0.3 mM, vs control; for IC50: Homo sapiens, HUVEC, 24 h, read-out: Viability-IC50, HUVEC cells", "method": "as §1"}}, "data": [{"smiles": "CCCCCCCCS(=O)(=O)NC(N)=NC(=N)N(C)C", "note": "[Compound 2]", "values": [{"measurement": "IC50", "setting": "AoSMC cells", "value": "3.71 ± 0.54", "unit": "mM"}, {"measurement": "activity of AT III", "setting": "antithrombin III (AT); 0.06 mM", "value": "121.00 ± 4.90", "unit": "%"}, {"measurement": "activity of AT III", "setting": "antithrombin III (AT); 0.3 mM", "value": "127.75 ± 10.44", "unit": "%"}, {"measurement": "activity of AT III", "setting": "antithrombin III (AT); 0.6 mM", "value": "125.75 ± 10.87", "unit": "%"}, {"measurement": "activity of AT III", "setting": "antithrombin III (AT); 1.5 mM", "value": "129.00 ± 11.46", "unit": "%"}, {"measurement": "viability at 24 h, 0.06 mM", "setting": "[1]", "value": "75.9 ± 5.85", "unit": "%"}, {"measurement": "viability at 24 h, 0.3 mM", "setting": "[1]", "value": "71.5 ± 3.12", "unit": "%"}, {"measurement": "viability at 24 h, 3 mM", "setting": "[1]", "value": 41.5, "unit": "%"}, {"measurement": "viability at 24 h, 5 mM", "setting": "[1]", "value": 32.1, "unit": "%"}, {"measurement": "Glucose uptake (intracellular 2-NBDG)", "setting": "HUVEC cells [2]; 0.1 mM", "value": "0.0139 ± 0.0003", "unit": "mM"}, {"measurement": "Glucose uptake (intracellular 2-NBDG)", "setting": "HUVEC cells [2]; 0.3 mM", "value": "0.0146 ± 0.001", "unit": "mM"}]}, {"smiles": "CCCCS(=O)(=O)NC(N)=NC(=N)N(C)C", "note": "[Compound 1]", "values": [{"measurement": "viability at 24 h, 3 mM", "setting": "[3]", "value": "> 59", "unit": "%"}, {"measurement": "activity of AT III", "setting": "antithrombin III (AT); 0.06 mM", "value": "110.25 ± 8.34", "unit": "%"}, {"measurement": "activity of AT III", "setting": "antithrombin III (AT); 0.3 mM", "value": "115.25 ± 6.18", "unit": "%"}, {"measurement": "activity of AT III", "setting": "antithrombin III (AT); 0.6 mM", "value": "120.00 ± 2.71", "unit": "%"}, {"measurement": "activity of AT III", "setting": "antithrombin III (AT); 1.5 mM", "value": "123.00 ± 5.2", "unit": "%"}, {"measurement": "Decrease of HUVECs viability (growth inhibition)", "setting": "HUVEC cells [4]", "value": "approximately 28.96%"}, {"measurement": "IC50", "setting": "HUVEC cells [4]", "value": "3.64 ± 0.26", "unit": "mM"}, {"measurement": "viability at 24 h, 0.06 mM", "setting": "[1]", "value": "76.3 ± 9.19", "unit": "%"}, {"measurement": "viability at 24 h, 0.3 mM", "setting": "[1]", "value": "71 ± 8.45", "unit": "%"}, {"measurement": "Glucose uptake (intracellular 2-NBDG)", "setting": "HUVEC cells [2]; 0.1 mM", "value": "0.0134 ± 0.0004", "unit": "mM"}, {"measurement": "Glucose uptake (intracellular 2-NBDG)", "setting": "HUVEC cells [2]; 0.3 mM", "value": "0.0142 ± 0.0007", "unit": "mM"}]}, {"smiles": "CN(C)C(=N)N=C(N)NS(=O)(=O)C1CCCCC1", "note": "[Compound 3]", "values": [{"measurement": "viability at 24 h, 3 mM", "setting": "[3]", "value": "> 76", "unit": "%"}, {"measurement": "activity of AT III", "setting": "antithrombin III (AT); 0.06 mM", "value": "113.00 ± 10.13", "unit": "%"}, {"measurement": "activity of AT III", "setting": "antithrombin III (AT); 0.3 mM", "value": "117.25 ± 5.50", "unit": "%"}, {"measurement": "activity of AT III", "setting": "antithrombin III (AT); 0.6 mM", "value": "131.75 ± 6.65", "unit": "%"}, {"measurement": "activity of AT III", "setting": "antithrombin III (AT); 1.5 mM", "value": "136.75 ± 11.32", "unit": "%"}, {"measurement": "Decrease of HUVECs viability (growth inhibition)", "setting": "HUVEC cells [4]", "value": "~24.15", "unit": "%"}, {"measurement": "IC50", "setting": "HUVEC cells [4]", "value": "3.51 ± 0.24", "unit": "mM"}, {"measurement": "Glucose uptake (intracellular 2-NBDG)", "setting": "HUVEC cells [2]; 0.1 mM", "value": "0.0137 ± 0.0003", "unit": "mM"}, {"measurement": "Glucose uptake (intracellular 2-NBDG)", "setting": "HUVEC cells [2]; 0.3 mM", "value": "0.0144 ± 0.0005", "unit": "mM"}]}]}
